According to the supplement of paper PMC11061612:

Experiments:
Assay in all cases: Bliss excess, mean over the matrix (fraction); higher = more synergy
[1] = tested on: BT-549 (Breast Carcinoma)
Outline: (§1)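 Cell lines grown in DMEM/F12 or RPMI with 10% FBS were plated in 1536-well plates and held 24 hours at 37°C, 5% CO2 before 72 hours of exposure to two-drug dose matrices, with DMSO typically at 0.2%. CellTiter-Glo 2.0 luminescence gave viability, which was converted to inhibition. Vehicle wells were set to 0 and blank wells to 1. Combination Emax is the second-highest inhibition in the matrix, and Bliss excess is the observed combination effect minus the expected EA + EB − EA·EB, where EA and EB are the single-agent effects.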

[2] = tested on: C-4-I (Cervical Carcinoma)
Outline: as §1

[3] = tested on: EFM-19 (Breast Carcinoma)
Outline: as §1

[4] = tested on: HGC-27 (Gastric Carcinoma)
Outline: as §1

[5] = tested on: HOP-62 (Lung Adenocarcinoma)
Outline: as §1

[6] = tested on: Hs-766T (Pancreatic Carcinoma)
Outline: as §1

[7] = tested on: KMOE-2 (Acute Myeloid Leukemia)
Outline: as §1

[8] = tested on: LU-65 (Non-Small Cell Lung Carcinoma)
Outline: as §1

[9] = tested on: MIA-PaCa-2 (Pancreatic Carcinoma)
Outline: as §1

[10] = tested on: MLMA (Other Blood Carcinomas)
Outline: as §1

[11] = tested on: NCI-H358 (Lung Adenocarcinoma)
Outline: as §1

[12] = tested on: NEC8 (Other Solid Carcinomas)
Outline: as §1

[13] = tested on: OVCAR-4 (Ovarian Carcinoma)
Outline: as §1

[14] = tested on: PANC-04-03 (Pancreatic Carcinoma)
Outline: as §1

[15] = tested on: SW13 (Other Solid Carcinomas)
Outline: as §1

[16] = tested on: VA-ES-BJ (Other Solid Carcinomas)
Outline: as §1

[17] = tested on: NCI-H1915 (Non-Small Cell Lung Carcinoma)
Outline: as §1

[18] = tested on: NUGC-3 (Gastric Carcinoma)
Outline: as §1

PWR-1E (Non-Cancerous) = tested on: PWR-1E (Non-Cancerous)
Outline: as §1

[19] = tested on: SU8686 (Pancreatic Carcinoma)
Outline: as §1

Row | Structure (SMILES) | Bliss excess [1] | Bliss excess [2] | Bliss excess [3] | Bliss excess [4] | Bliss excess [5] | Bliss excess [6] | Bliss excess [7] | Bliss excess [8] | Bliss excess [9] | Bliss excess [10] | Bliss excess [11] | Bliss excess [12] | Bliss excess [13] | Bliss excess [14] | Bliss excess [15] | Bliss excess [16] | Bliss excess [17] | Bliss excess [18] | Bliss excess (PWR-1E (Non-Cancerous)) | Bliss excess [19]
1 | CCc1c2c(nc3ccc(O)cc13)-c1cc3c(c(=O)n1C2)COC(=O)[C@]3(O)CC [SN-38] + O=C(c1cc(Cc2n[nH]c(=O)c3ccccc23)ccc1F)N1CCN(C(=O)C2CC2)CC1 [Olaparib] (first compound max 0.3 µM, 7x7, partner max 10 µM) | 0.0589 | 0.055 | 0.0496 | -0.0468 | 0.0562 | 0 | 0.0555 | 0.0282 | 0.0701 | 0.038 | 0.0029 | 0.0473 | -0.0234 | 0.0215 | 0.0364 | -0.0117 | – | – | – | –
2 | CC1(C)CCC(CN2CCN(c3ccc(C(=O)NS(=O)(=O)c4ccc(NCC5CCOCC5)c([N+](=O)[O-])c4)c(Oc4cnc5[nH]ccc5c4)c3)CC2)=C(c2ccc(Cl)cc2)C1 [Venetoclax] + Cn1cnc2c(F)c(Nc3ccc(Br)cc3Cl)c(C(=O)NOCCO)cc21 [Selumetinib] (first compound max 1 µM, 7x7, partner max 3 µM) | -0.0691 | -0.0299 | -0.0607 | -0.0178 | -0.0155 | -0.0346 | -0.0168 | -0.0153 | -0.0073 | 0.0401 | -0.024 | -0.0151 | -0.02 | -0.0633 | 0.0137 | -0.0473 | -0.0541 | 0.0051 | -0.0327 | -0.0792
3 | COc1nnc2ccc(N3CCC(c4ccc(OCCN5CCN(C)C(=O)[C@H]5C)cc4)CC3)nn12 [AZD5153] + C=CCn1c(=O)c2cnc(Nc3ccc(N4CCN(C)CC4)cc3)nc2n1-c1cccc(C(C)(C)O)n1 [AZD1775] (first compound max 1 µM, partner max 1 µM) | -0.0585 | -0.109 | -0.026 | -0.0229 | -0.0674 | -0.0369 | 0.0656 | -0.0806 | -0.0019 | -0.107 | -0.113 | -0.0352 | -0.0935 | -0.106 | -0.0336 | 0.0076 | -0.0565 | -0.0249 | -0.127 | -0.0147
4 | Cc1c2c(nn1C)CSCc1cc(n(C)n1)CSc1cc(c3ccccc3c1)OCCCc1c(C(=O)O)n(C)c3c-2c(Cl)ccc13 [AZD5991] + CN(C)CCCOc1ccc(-c2ccc3ncc4c(c3c2)n(C2CCOCC2)c(=O)n4C)cn1 [AZD0156] (first compound max 1 µM, 7x7, partner max 1 µM) | -0.004 | 0.0063 | -0.03 | 0.0458 | – | -0.0006 | -0.0526 | -0.001 | -0.0084 | -0.0056 | 0.0096 | 0.0201 | 0.0076 | 0.0116 | -0.0092 | -0.0027 | -0.0186 | 0.0167 | 0.027 | -0.0413
5 | Cc1c2c(nn1C)CSCc1cc(n(C)n1)CSc1cc(c3ccccc3c1)OCCCc1c(C(=O)O)n(C)c3c-2c(Cl)ccc13 [AZD5991] + CCN(CCO)CCCOc1ccc2c(Nc3cc(CC(=O)Nc4cccc(F)c4)[nH]n3)ncnc2c1 [AZD2811] (first compound max 1 µM, 7x7, partner max 1 µM) | 0.0908 | 0.0332 | 0.122 | 0.0635 | – | -0.0019 | 0.0471 | -0.0258 | 0.0738 | 0.028 | -0.0392 | 0.0348 | 0.0989 | -0.0143 | 0.0895 | 0.0703 | 0.0197 | 0.0454 | 0.151 | -0.0135
6 | Cc1c2c(nn1C)CSCc1cc(n(C)n1)CSc1cc(c3ccccc3c1)OCCCc1c(C(=O)O)n(C)c3c-2c(Cl)ccc13 [AZD5991] + Cn1cnc2c(F)c(Nc3ccc(Br)cc3Cl)c(C(=O)NOCCO)cc21 [Selumetinib] (first compound max 1 µM, 7x7, partner max 3 µM) | 0.0056 | 0.132 | – | 0.033 | -0.0626 | -0.0859 | -0.0227 | 0.03 | 0.0197 | 0.0463 | 0.0531 | 0.0374 | 0.0473 | 0.0201 | -0.0006 | 0.0207 | 0.0375 | 0.0106 | -0.0294 | 0.0084
7 | Cc1c2c(nn1C)CSCc1cc(n(C)n1)CSc1cc(c3ccccc3c1)OCCCc1c(C(=O)O)n(C)c3c-2c(Cl)ccc13 [AZD5991] + C=CCn1c(=O)c2cnc(Nc3ccc(N4CCN(C)CC4)cc3)nc2n1-c1cccc(C(C)(C)O)n1 [AZD1775] (first compound max 1 µM, partner max 1 µM) | 0.024 | 0.0267 | 0.054 | -0.0061 | -0.0288 | 0.0172 | 0.0087 | -0.118 | -0.0424 | -0.0326 | -0.0047 | -0.0089 | 0.0117 | – | 0.0002 | 0.0475 | -0.0552 | -0.0088 | -0.0124 | 0.0175
